Laboratory results as given in patent publication US11690854B2, “Methods of treating heavy menstrual bleeding” (priority 2018, dated 2023).
Marks after values point to notes of the source that are not given here.

Columns and labels:
[1] = tested on: premenopausal women with endometriosis with associated pain; assay: Phase 3 Study EM-I (and extension EM-III); type: in vivo, human; details: for Proportion of responders for Dyspareunia (Daily Endometriosis Pain Impact Scale) / Proportion of responders for dysmenorrhea (Daily Endometriosis Pain Impact Scale) / Proportion of responders for Non-Menstrual Pelvic Pain (Daily Endometriosis Pain Impact Scale): EM-I
Description: (§1) Each placebo-controlled study assessed the reduction in endometriosis-associated pain over 6 months of treatment. More than 75 percent of women who completed Study EM-I and EM-II enrolled in the extension studies for an additional 6 month treatment period. Subjects were followed for up to 12 months post-treatment. The co-primary efficacy endpoints were the proportion of responders for dysmenorrhea and pelvic pain not related to menses (also known as non-menstrual pelvic pain [NMPP]) at Month 3 compared to placebo. The primary analysis independently evaluated these endpoints using a daily diary that asked patients to assess their pain and its impact on their daily activities, over the previous 24 hours. […] Women were defined as responders if they experienced clinically meaningful reduction in dysmenorrhea and/or NMPP with no increased analgesic use for endometriosis associated pain. Dyspareunia was evaluated as a secondary endpoint using the Daily Endometriosis Pain Impact Scale. Endometrial biopsies were performed in subjects in Study EM-I and its extension at Month 6 and Month 12.

[2] = target: T1, organic anion transporting polypeptide (OATP)1B1 (Homo sapiens, UniProt Q9Y6L6); assay: Drug interaction potential: OATP1B1
T1 sequence (Q9Y6L6 1-691): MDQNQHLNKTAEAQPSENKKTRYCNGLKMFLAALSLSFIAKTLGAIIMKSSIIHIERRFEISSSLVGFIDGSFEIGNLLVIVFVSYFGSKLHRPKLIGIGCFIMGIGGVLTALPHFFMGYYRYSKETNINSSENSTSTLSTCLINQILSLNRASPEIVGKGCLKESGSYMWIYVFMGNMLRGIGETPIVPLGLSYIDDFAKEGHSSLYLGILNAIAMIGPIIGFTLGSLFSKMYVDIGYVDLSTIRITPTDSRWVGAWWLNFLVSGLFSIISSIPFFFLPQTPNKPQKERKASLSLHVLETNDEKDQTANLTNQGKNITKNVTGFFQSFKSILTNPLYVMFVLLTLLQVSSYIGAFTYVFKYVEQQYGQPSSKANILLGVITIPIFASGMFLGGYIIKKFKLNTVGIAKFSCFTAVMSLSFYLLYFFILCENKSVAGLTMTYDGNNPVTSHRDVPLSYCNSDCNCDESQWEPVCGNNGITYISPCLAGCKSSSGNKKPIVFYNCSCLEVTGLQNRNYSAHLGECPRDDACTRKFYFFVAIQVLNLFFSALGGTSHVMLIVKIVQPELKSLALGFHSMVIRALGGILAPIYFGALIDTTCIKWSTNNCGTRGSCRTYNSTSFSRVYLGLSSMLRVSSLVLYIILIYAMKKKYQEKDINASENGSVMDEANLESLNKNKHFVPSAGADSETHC
Procedure: Elagolix is a substrate of CYP3A, P-gp, and organic anion transporting polypeptide (OATP)1B1. Clinically meaningful interactions are not expected when ELAGOLIX is co-administered with drugs that inhibit CYP3A or P-gp.
Co-administration of ELAGOLIX with drugs that inhibit OATP1B1 may increase elagolix plasma concentrations. Use of potent OATP1B1 inhibitors are not recommended with ELAGOLIX 200 mg BID regimen.

[3] = tested on: women with moderate to severe endometriosis-related pain; assay: PROMIS Fatigue SF-6a in Phase III study of endometriosis pain; type: in vivo, human
Procedure: A Phase III study was conducted to assess the effects of elagolix for clinically meaningful reductions in pain and other symptoms. Data provided examined the impact of elagolix on fatigue in women with moderate to severe endometriosis-related pain. […] Fatigue was assessed using the Patient Reported Outcome Measurement Information System (PROMIS®), Fatigue Short Form (SF) 6a. Six items assessed a range of self-reported symptoms from mild, subjective feelings of tiredness to overwhelming, sustained sense of exhaustion that likely decreases one's ability to execute daily activities and function normally. The domain was divided into the experience of fatigue (frequency, duration and intensity) and impact of fatigue on physical, mental and social activities. All items assessed fatigue over the previous seven days. […] Lower scores indicated less fatigue. Post-hoc, Fatigue SF-6a raw scores were converted to T-scores. The T-score rescales […] the raw score into a standardized score such that the general population has a mean of 50 and a standard deviation (SD) of 10. Analysis: […] ANCOVA controlled for treatment as main effect. Baseline Fatigue SF-6a T-score included as a covariate.

[4] = tested on: QTc interval; assay: Thorough QT study; type: in vivo; details: up to 1200 mg; 17- to 23-fold of therapeutic concentrations; active control moxifloxacin 400 mg
Procedure: The effect of elagolix (up to 1200 mg) on QTc interval was evaluated in an active-controlled (moxifloxacin 400 mg) thorough QT study.

[5] = tested on: mice; assay: 2-year carcinogenicity study in mice; type: in vivo; details: mouse; any dose
[6] = tested on: premenopausal women with endometriosis with associated pain; assay: Phase 3 Study EM-II (and extension EM-IV); type: in vivo, human
Description: as §1, with “Scale.” for “Scale. Endometrial biopsies were performed in subjects in Study EM-I and its extension at Month 6 and Month 12.”

SMILES: COc1cccc(-c2c(C)n(Cc3c(F)cccc3C(F)(F)F)c(=O)n(C[C@H](NCCCC(=O)O)c3ccccc3)c2=O)c1F [Elagolix, 4-((R)-2-[5-(2-fluoro-3-methoxy-phenyl)-3-(2-fluoro-6-trifluoromethyl-benzyl)-4-methyl-2,6-dioxo-3,6-dihydro-2H-pyrimidin-1-yl]-1-phenyl-ethylamino)-butyric acid]
- Proportion of responders for Dyspareunia (Daily Endometriosis Pain Impact Scale) ([1]; 150 mg QD, Month 3, n/N 74/187, placebo 31.9): 39.6%
- Proportion of responders for dysmenorrhea (Daily Endometriosis Pain Impact Scale) ([1]; 150 mg QD, Month 3, n/N 115/248, placebo 19.6): 46.4*** %
- Proportion of responders for Non-Menstrual Pelvic Pain (Daily Endometriosis Pain Impact Scale) ([1]; 150 mg QD, Month 3, n/N 125/248, placebo 36.5): 50.4*** %
- Proportion of responders for Dyspareunia (Daily Endometriosis Pain Impact Scale) ([1]; 150 mg QD, Month 6, n/N 74/187, placebo 33.3): 39.6%
- Proportion of responders for dysmenorrhea (Daily Endometriosis Pain Impact Scale) ([1]; 150 mg QD, Month 6, n/N 104/247, placebo 23.1): 42.1*** %
- Proportion of responders for Non-Menstrual Pelvic Pain (Daily Endometriosis Pain Impact Scale) ([1]; 150 mg QD, Month 6, n/N 113/247, placebo 34.9): 45.7** %
- Proportion of responders for Dyspareunia (Daily Endometriosis Pain Impact Scale) ([1]; 200 mg BID, Month 3, n/N 81/172, placebo 31.9): 47.1*** %
- Proportion of responders for Non-Menstrual Pelvic Pain (Daily Endometriosis Pain Impact Scale) ([1]; 200 mg BID, Month 3, n/N 133/244, placebo 36.5): 54.5*** %
- Proportion of responders for dysmenorrhea (Daily Endometriosis Pain Impact Scale) ([1]; 200 mg BID, Month 3, n/N 185/244, placebo 19.6): 75.8*** %
- Proportion of responders for Dyspareunia (Daily Endometriosis Pain Impact Scale) ([1]; 200 mg BID, Month 6, n/N 81/161, placebo 33.3): 50.3*** %
- Proportion of responders for Non-Menstrual Pelvic Pain (Daily Endometriosis Pain Impact Scale) ([1]; 200 mg BID, Month 6, n/N 151/243, placebo 34.9): 62.1*** %
- Proportion of responders for dysmenorrhea (Daily Endometriosis Pain Impact Scale) ([1]; 200 mg BID, Month 6, n/N 183/243, placebo 23.1): 75.3*** %
- Endometrial biopsy findings ([1]; Study EM-I and its extension, Month 6 and Month 12): no abnormal biopsy findings post-baseline
- Substrate of OATP1B1 [2]: substrate
- PROMIS Fatigue SF-6a T-Score ([3]; 200 mg, Month 1): statistically significant reduction in fatigue
- PROMIS Fatigue SF-6a T-Score ([3]; both doses (150 mg QD, 200 mg BID), Months 3 and 6): Statistically significant reductions relative to placebo
- Effect on QTc interval [4]: does not prolong the QTc interval
- Tumors in 2-year carcinogenicity study [5]: no increase in tumors
- Proportion of responders for Dyspareunia (Daily Endometriosis Pain Impact Scale) ([6]; 150 mg QD, Month 3, n/N 70/159, placebo 39.5): 44.0%
- Proportion of responders for dysmenorrhea (Daily Endometriosis Pain Impact Scale) ([6]; 150 mg QD, Month 3, n/N 96/221, placebo 22.7): 43.4%***
- Proportion of responders for Non-Menstrual Pelvic Pain (Daily Endometriosis Pain Impact Scale) ([6]; 150 mg QD, Month 3, n/N 110/221, placebo 36.5): 49.8** %
- Proportion of responders for Dyspareunia (Daily Endometriosis Pain Impact Scale) ([6]; 150 mg QD, Month 6, n/N 65/163, placebo 39.4): 39.9%
- Proportion of responders for dysmenorrhea (Daily Endometriosis Pain Impact Scale) ([6]; 150 mg QD, Month 6, n/N 102/221, placebo 25.4): 46.2%***
- Proportion of responders for Non-Menstrual Pelvic Pain (Daily Endometriosis Pain Impact Scale) ([6]; 150 mg QD, Month 6, n/N 114/221, placebo 40.6): 51.6%**
- Proportion of responders for Dyspareunia (Daily Endometriosis Pain Impact Scale) ([6]; 200 mg BID, Month 3, n/N 87/162, placebo 39.5): 53.7** %
- Proportion of responders for Non-Menstrual Pelvic Pain (Daily Endometriosis Pain Impact Scale) ([6]; 200 mg BID, Month 3, n/N 130/225, placebo 36.5): 57.8*** %
- Proportion of responders for dysmenorrhea (Daily Endometriosis Pain Impact Scale) ([6]; 200 mg BID, Month 3, n/N 163/225, placebo 22.7): 72.4*** %
- Proportion of responders for Dyspareunia (Daily Endometriosis Pain Impact Scale) ([6]; 200 mg BID, Month 6, n/N 92/165, placebo 39.4): 55.8*** %
- Proportion of responders for Non-Menstrual Pelvic Pain (Daily Endometriosis Pain Impact Scale) ([6]; 200 mg BID, Month 6, n/N 140/225, placebo 40.6): 62.2*** %
- Proportion of responders for dysmenorrhea (Daily Endometriosis Pain Impact Scale) ([6]; 200 mg BID, Month 6, n/N 173/225, placebo 25.4): 76.9*** %
